Results on 15 molecules are retold here after patent US12071430B2 (The Johns Hopkins University, priority 2011, dated 2024).

One may read the solubility as the concentration that dissolves in the medium under given conditions. Lower therefore signals little dissolved substance.

A short description of data set [1]: Aqueous solubility test in 0.001N HCl. The note with it: 0.001 N HCl aqueous buffer, simulated gastric fluid, kinetic from dmso stock; thermodynamic solubility, HPLC, pH=3, room temperature, 24 h. Type of data set: physicochemical. The protocol: (§1) The inhibitory effects of the new analogs on HUVEC proliferation were measured using a [3H]-thymidine incorporation assay. The log P values, used as an indicator of lipophilicity, were calculated using ALOGPS2.1 software. Aqueous solubility is a key physiochemical property relevant for oral absorption. We determined the solubility of each analog in 0.001 N HCl (pH=3), which represents the acidic human gastric fluid.
Aqueous solubility test. In a 1.5 mL microcentrifuge tube, 2 ul of 10 mM compound stock solution in DMSO was added to 1 mL 0.001N HCl aqueous buffer to obtain saturated solution. The resulting mixture was shaken under 600 rpm for 24 h at room temperature. Then the tube was centrifuged at 13,000 rpm for 5 min to remove the undissolved compound. 100 ul of the supernatant was injected to an Agilent 6120 LC/MS for analysis. The mass spectrometry data was collected under SIM/Scan mode. The ions of compound Exact Mass+1 and Exact Mass+23 were monitored as selected ion monitoring (SIM) for peak area integration. Solubility was calculated according to the concentration standard curve of each compound.

In data set [2] the test system is HUVEC. The experiment in a line: HUVEC proliferation, [3H]-thymidine incorporation assay. Type of data set: cell-based. The conditions noted are these: Homo sapiens, mean ± SD, three independent experiments, read-out: HUVEC inhibition IC50. Background: Incorporation of labelled thymidine or its analogues reports DNA synthesis.
Data set [3] has as its system HUVEC. Described as above. The note with it: for Proliferation (IC50/IC50 Itra): HUVEC IC50 relative to itraconazole; for IC50: Homo sapiens, HUVEC, [3H]-thymidine incorporation, unit inferred, values in μM, read-out: Proliferation IC50. It is filed as cell-based, human. The protocol: as §1
HUVEC Culture and Proliferation Assays. HUVEC (Lonza) were grown in EGM-2 bullet kit media (Lonza) and used at passage eight or lower. The H thymidine incorporation assays were conducted as previously described. Briefly, cells were seeded on 96-well plate at a concentration of 2000 cells/well and allowed to settle overnight. Drugs were added to each well in triplicate. After 24 hours, cells were treated with 1 μCi of [3H] thymidine for 6 h. Then cells were harvested and transferred to filtermats. The scintillation were counted and IC50 were determined using Prism software (version 6.0).

Data set [4] addresses T1, CYP3A4 (Homo sapiens, UniProt P08684).
T1 construct: purchased ThermoFisher P2857; host or cells: baculosomes (insect-cell microsomes, own knowledge)
The experiment in a line: CYP3A4 enzyme assay (Vivid CYP3A4 Green Screening Kit). It is filed as in vitro ADME. The conditions noted are these: for CYP3A4 Inhibition (compared to intracozanole at 1 um): % enzyme inhibition at 1 uM drug / % enzyme inhibition at 1 uM itraconazole. As for the experimental part:
And CYP3A4 inhibition was initially determined using a cell-free fluorescence-based assay at a final concentration of 1 μM (Table 2).
CYP3A4 enzyme assay. CYP3A4 enzyme activity was tested using Vivid™ CYP3A4 Green Screening Kit (ThermoFisher, #P2857) using the manufacturer's protocol. Briefly, CYP3A4 baculosomes and drugs were incubated 10 min at 37° C. Then Vivid® Substrates were added and the fluorescence (ex/em:485/520) were read every 1 min for 60 minute.

SMILES strings stand for the structures. Values after ≈ are worked out from the molar mass of the structure shown. Where two headings read alike, the source gives them in different places.

T1 sequence (P08684 whole entry): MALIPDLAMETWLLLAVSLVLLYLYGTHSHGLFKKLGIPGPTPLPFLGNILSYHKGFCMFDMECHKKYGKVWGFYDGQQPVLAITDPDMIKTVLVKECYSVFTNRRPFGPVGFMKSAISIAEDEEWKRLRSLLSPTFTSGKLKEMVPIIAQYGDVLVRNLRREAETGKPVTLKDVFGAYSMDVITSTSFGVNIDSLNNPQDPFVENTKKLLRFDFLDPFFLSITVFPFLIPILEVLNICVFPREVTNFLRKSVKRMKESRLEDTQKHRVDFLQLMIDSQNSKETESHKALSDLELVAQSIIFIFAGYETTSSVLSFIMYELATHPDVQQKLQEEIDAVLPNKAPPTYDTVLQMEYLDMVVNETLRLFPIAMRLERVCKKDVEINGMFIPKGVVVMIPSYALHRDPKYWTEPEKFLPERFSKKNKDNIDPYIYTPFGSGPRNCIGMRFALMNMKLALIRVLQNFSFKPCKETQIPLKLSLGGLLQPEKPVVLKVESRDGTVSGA

`CCC(C)n1ncn(-c2ccc(N3CCN(c4ccc(OC[C@@H]5CO[C@@](Cn6ccnc6)(c6ccc(Cl)cc6Cl)O5)nc4)CC3)cc2)c1=O` (stereo partly drawn) [Compound 2, 4-(4-(4-(6-(((2S,4R)-2-((1H-imidazol-1-yl)methyl)-2-(2,4-dichlorophenyl)-1,3-dioxolan-4-yl)methoxy)pyridin-3-yl)piperazin-1-yl)phenyl)-2-(sec-butyl)-2,4-dihydro-3H-1,2,4-triazol-3-one]: the solubility at 24 h in data set [1] is 6.48 µg/mL (≈ 9.19 µM). The IC50 in data set [2] came out at 468 ± 42.2 nM.
In turn, `CCC(C)n1ncn(-c2ccc(N3CCN(c4ccc(OC[C@@H]5CO[C@@](Cn6ccnc6)(c6ccc(Cl)cc6Cl)O5)cc4)CC3)cn2)c1=O` (stereo partly drawn) [Compound 7, 4-(5-(4-(4-(((2S,4R)-2-((1H-imidazol-1-yl)methyl)-2-(2,4-dichlorophenyl)-1,3-dioxolan-4-yl)methoxy)phenyl)piperazin-1-yl)pyridin-2-yl)-2-(sec-butyl)-2,4-dihydro-3H-1,2,4-triazol-3-one] registered a solubility at 24 h in data set [1] of 41.3 µg/mL (≈ 58.6 µM). Further, the IC50 in data set [2] was determined as 636 ± 177 nM.
Consider `CCC(C)n1ncn(-c2ccc(N3CCN(c4ccc(OC[C@@H]5CO[C@@](Cn6nnnc6-c6ccccc6)(c6ccc(Cl)cc6Cl)O5)cc4)CC3)cc2)c1=O` (stereo partly drawn) [Compound 53, 1-sec-butyl-4-(4-(4-(4-(((2S,4R)-2-(2,4-dichlorophenyl)-2-((5-phenyl-1H-tetrazol-1-yl)methyl)-1,3-dioxolan-4-yl)methoxy)phenyl)piperazin-1-yl)phenyl)-1H-1,2,4-triazol-5(4H)-one], for which the “Proliferation (IC50/IC50 Itra)” value in data set [3] turned out to be 0.7. Besides, the “CYP3A4 Inhibition (compared to intracozanole at 1 um)” value in data set [4] was 0.22.
In the case of `CCC(C)n1ncn(-c2ccc(N3CCN(c4ccc(OC[C@@H]5CO[C@@](CBr)(c6ccc(Cl)cc6Cl)O5)cc4)CC3)cc2)c1=O` (stereo partly drawn) [Compound 57, 4-(4-(4-(4-(((2S,4R)-2-(bromomethyl)-2-(2,4-dichlorophenyl)-1,3-dioxolan-4-yl)methoxy)phenyl)piperazin-1-yl)phenyl)-1-sec-butyl-1H-1,2,4-triazol-5(4H)-one], in data set [3], the “Proliferation (IC50/IC50 Itra)” value was 3.0 and the IC50 was determined as 0.569 µM. Also, the “CYP3A4 Inhibition (compared to intracozanole at 1 um)” value in data set [4] turned out to be 0.03.
In the case of `CCC(C)n1ncn(-c2ccc(N3CCN(c4ccc(OC[C@@H]5CO[C@@](CC)(c6ccc(Cl)cc6Cl)O5)cc4)CC3)cc2)c1=O` (stereo partly drawn) [Compound 59, 1-sec-butyl-4-(4-(4-(4-(((2R,4R)-2-(2,4-dichlorophenyl)-2-ethyl-1,3-dioxolan-4-yl)methoxy)phenyl)piperazin-1-yl)phenyl)-1H-1,2,4-triazol-5(4H)-one], the “Proliferation (IC50/IC50 Itra)” value in data set [3] is listed as 2.1. Moreover, in data set [4], the “CYP3A4 Inhibition (compared to intracozanole at 1 um)” value is “No inhibition”. The “CYP3A4 inhibition, in words” value in data set [4] (dose response or compared with itraconazole) is listed as “totally lost CYP3A4 inhibition”.
For `CCC(C)n1ncn(-c2ccc(N3CCN(c4ccc(OC[C@@H]5CO[C@@](Cc6ccccc6)(c6ccc(Cl)cc6Cl)O5)cc4)CC3)cc2)c1=O` (stereo partly drawn) [Compound 60, 4-(4-(4-(4-(((2R,4R)-2-benzyl-2-(2,4-dichlorophenyl)-1,3-dioxolan-4-yl)methoxy)phenyl)piperazin-1-yl)phenyl)-1-sec-butyl-1H-1,2,4-triazol-5(4H)-one], in data set [3], the “Proliferation (IC50/IC50 Itra)” value was 3.0 and the IC50 was 0.513 µM. In data set [4], the “CYP3A4 Inhibition (compared to intracozanole at 1 um)” value is “No inhibition”.
Take `CCC(C)n1ncn(-c2ccc(N3CCN(c4ccc(OC[C@@H]5CO[C@@](CC6CCCC6)(c6ccc(Cl)cc6Cl)O5)cc4)CC3)cc2)c1=O` (stereo partly drawn) [Compound 61, 1-sec-butyl-4-(4-(4-(4-(((2R,4R)-2-(cyclopentylmethyl)-2-(2,4-dichlorophenyl)-1,3-dioxolan-4-yl)methoxy)phenyl)piperazin-1-yl)phenyl)-1H-1,2,4-triazol-5(4H)-one]: in data set [3], the “Proliferation (IC50/IC50 Itra)” value is 3.0. Also, in data set [4], the “CYP3A4 Inhibition (compared to intracozanole at 1 um)” value was “No inhibition”.
As to `CCC(C)n1ncn(-c2ccc(N3CCN(c4ccc(OC[C@@H]5COC(c6ccc(Cl)cc6Cl)O5)cc4)CC3)cc2)c1=O` (stereo partly drawn) [Compound 62, 1-sec-butyl-4-(4-(4-(4-(((4R)-2-(2,4-dichlorophenyl)-1,3-dioxolan-4-yl)methoxy)phenyl)piperazin-1-yl)phenyl)-1H-1,2,4-triazol-5(4H)-one], the “Proliferation (IC50/IC50 Itra)” value in data set [3] is listed as 1.9. For the same molecule, in data set [4], the “CYP3A4 Inhibition (compared to intracozanole at 1 um)” value is given as “No inhibition”.
For `CCC(C)n1ncn(-c2ccc(N3CCN(c4ccc(OC[C@@H]5CO[C@@](CN6CCOCC6)(c6ccc(Cl)cc6Cl)O5)cc4)CC3)cc2)c1=O` (stereo partly drawn) [Compound 63, 1-(sec-butyl)-4-(4-(4-(4-(((2S,4R)-2-(2,4-dichlorophenyl)-2-(morpholinomethyl)-1,3-dioxolan-4-yl)methoxy)phenyl)piperazin-1-yl)phenyl)-1H-1,2,4-triazol-5(4H)-one] the same measures were 7.4 and 0.20.
In the case of `CCC(C)n1ncn(-c2ccc(N3CCN(c4ccc(OC[C@@H]5CO[C@@](CN(C)C)(c6ccc(Cl)cc6Cl)O5)cc4)CC3)cc2)c1=O` (stereo partly drawn) [Compound 64, 1-(sec-butyl)-4-(4-(4-(4-(((2S,4R)-2-(2,4-dichlorophenyl)-2-((dimethylamino)methyl)-1,3-dioxolan-4-yl)methoxy)phenyl)piperazin-1-yl)phenyl)-1H-1,2,4-triazol-5(4H)-one], the “Proliferation (IC50/IC50 Itra)” value in data set [3] is reported as 8.8. Moreover, the “CYP3A4 Inhibition (compared to intracozanole at 1 um)” value in data set [4] is “No inhibition”.
`CCC(C)n1ncn(-c2ccc(N3CCN(c4ccc(OC[C@@H]5CO[C@@](CN6CCN(C)CC6)(c6ccc(Cl)cc6Cl)O5)cc4)CC3)cc2)c1=O` (stereo partly drawn) [Compound 65, 1-(sec-butyl)-4-(4-(4-(4-(((2S,4R)-2-(2,4-dichlorophenyl)-2-((4-methylpiperazin-1-yl)methyl)-1,3-dioxolan-4-yl)methoxy)phenyl)piperazin-1-yl)phenyl)-1H-1,2,4-triazol-5(4H)-one]: the “Proliferation (IC50/IC50 Itra)” value in data set [3] was determined as 3.8. Further, the “CYP3A4 Inhibition (compared to intracozanole at 1 um)” value in data set [4] worked out at 0.21.
With `CCC(C)n1ncn(-c2ccc(N3CCN(c4ccc(OC[C@@H]5CO[C@@](CN6CCNCC6)(c6ccc(Cl)cc6Cl)O5)cc4)CC3)cc2)c1=O` (stereo partly drawn) [Compound 66, 1-(sec-butyl)-4-(4-(4-(4-(((2S,4R)-2-(2,4-dichlorophenyl)-2-(piperazin-1-ylmethyl)-1,3-dioxolan-4-yl)methoxy)phenyl)piperazin-1-yl)phenyl)-1H-1,2,4-triazol-5(4H)-one], the “Proliferation (IC50/IC50 Itra)” value in data set [3] was 2.5. Also, in data set [4], the “CYP3A4 Inhibition (compared to intracozanole at 1 um)” value is recorded as 1.09.
`CCC(C)n1ncn(-c2ccc(N3CCN(c4ccc(OC[C@@H]5CO[C@@](Cn6cncn6)(c6ccc(Cl)cc6Cl)O5)nc4)CC3)cc2)c1=O` (stereo partly drawn) [Compound 100, 4-(4-(4-(6-(((2S,4R)-2-((1H-1,2,4-triazol-1-yl)methyl)-2-(2,4-dichlorophenyl)-1,3-dioxolan-4-yl)methoxy)pyridin-3-yl)piperazin-1-yl)phenyl)-2-(sec-butyl)-2,4-dihydro-3H-1,2,4-triazol-3-one]: the solubility at 24 h in data set [1] is 0.116 µg/mL (≈ 0.164 µM). For the same molecule, in data set [2], the IC50 worked out at 687 ± 78.1 nM.
As for `CCC(C)n1ncn(-c2ccc(N3CCN(c4ccc(OC[C@@H]5CO[C@@](Cn6cncn6)(c6ccc(Cl)cc6Cl)O5)cc4)CC3)nc2)c1=O` (stereo partly drawn) [Compound 102, 4-(6-(4-(4-(((2S,4R)-2-((1H-1,2,4-triazol-1-yl)methyl)-2-(2,4-dichlorophenyl)-1,3-dioxolan-4-yl)methoxy)phenyl)piperazin-1-yl)pyridin-3-yl)-2-(sec-butyl)-2,4-dihydro-3H-1,2,4-triazol-3-one], the solubility at 24 h in data set [1] is 0.0539 µg/mL (≈ 0.0763 µM). For the same molecule, in data set [2], the IC50 was determined as 222 ± 23.1 nM.
Molecule `CCC(C)n1ncn(-c2ccc(N3CCN(c4ccc(OC[C@@H]5CO[C@@](Cn6cncn6)(c6ccc(Cl)cc6Cl)O5)cc4)CC3)cn2)c1=O` (stereo partly drawn) [Compound 103, 4-(5-(4-(4-(((2S,4R)-2-((1H-1,2,4-triazol-1-yl)methyl)-2-(2,4-dichlorophenyl)-1,3-dioxolan-4-yl)methoxy)phenyl)piperazin-1-yl)pyridin-2-yl)-2-(sec-butyl)-2,4-dihydro-3H-1,2,4-triazol-3-one] came in with a solubility at 24 h in data set [1] of 0.496 µg/mL (≈ 0.703 µM). Further, in data set [2], the IC50 was found to be 188 ± 17.5 nM.
